Assay results reported in patent US12427144B2, “Compounds and methods for the targeted degradation of androgen receptor” (Arvinas Operations, Inc., priority 2019, dated 2025).

Target: T1, androgen receptor (Homo sapiens, UniProt P10275)
T1 construct: endogenous in cells; host or cells: VCaP
T1 sequence (P10275 1-920): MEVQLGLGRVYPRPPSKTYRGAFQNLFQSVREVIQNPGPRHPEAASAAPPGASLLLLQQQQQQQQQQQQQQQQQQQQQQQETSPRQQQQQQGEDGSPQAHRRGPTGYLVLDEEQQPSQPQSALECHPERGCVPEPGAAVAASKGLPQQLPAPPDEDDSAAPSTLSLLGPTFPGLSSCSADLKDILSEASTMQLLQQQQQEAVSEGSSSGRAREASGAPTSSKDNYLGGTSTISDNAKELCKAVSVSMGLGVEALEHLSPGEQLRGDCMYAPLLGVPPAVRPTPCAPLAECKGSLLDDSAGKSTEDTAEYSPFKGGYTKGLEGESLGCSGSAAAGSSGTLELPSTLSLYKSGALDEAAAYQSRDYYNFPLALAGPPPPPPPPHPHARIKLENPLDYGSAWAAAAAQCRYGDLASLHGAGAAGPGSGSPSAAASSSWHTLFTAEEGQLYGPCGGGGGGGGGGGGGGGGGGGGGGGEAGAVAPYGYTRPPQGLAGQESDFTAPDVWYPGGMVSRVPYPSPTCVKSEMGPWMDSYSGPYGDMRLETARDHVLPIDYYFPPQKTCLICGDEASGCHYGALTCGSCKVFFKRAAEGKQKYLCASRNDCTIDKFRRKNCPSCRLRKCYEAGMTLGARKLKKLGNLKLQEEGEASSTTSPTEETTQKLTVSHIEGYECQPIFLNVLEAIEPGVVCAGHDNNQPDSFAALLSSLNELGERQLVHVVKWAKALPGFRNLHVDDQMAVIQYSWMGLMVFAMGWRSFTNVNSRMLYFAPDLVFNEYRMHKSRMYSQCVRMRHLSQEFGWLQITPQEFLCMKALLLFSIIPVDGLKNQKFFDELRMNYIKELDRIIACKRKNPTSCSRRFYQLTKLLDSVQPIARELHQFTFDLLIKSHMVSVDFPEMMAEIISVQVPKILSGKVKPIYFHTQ
Assay: AR ELISA assay (PathScan AR Sandwich ELISA), VCaP cells
Format: cell-based
Conditions: drug treatment 5 hours
Description: Compounds were evaluated in this assay in LNCaP and/or VCaP cells utilizing similar protocols. The protocols used with VCaP cells are described below. The androgen receptor ELISA assay was performed using PathScan AR Sandwich ELISA (Cell Signaling Catalog #12850) according to the following assay steps:
VCaP cells were seeded at 40,000 cells/well at a volume of 100 μL/well in VCaP assay medium [Phenol red free RPMI (Gibco Cat #11835-030); 5% Charcoal Stripped (Dextran treated) FBS (Omega Scientific, Cat #FB-04); 1% penstrep (Life Technologies, Gibco Cat #: 10378-016)] in Corning 3904 plates. The cells were incubated for a minimum of 3 days. Cells were dosed with PROTACs diluted in 0.01% DMSO and the drug treatment was allowed for 5 hours.
AR ELISA (Cell Signaling) was performed as follows. 1× Cell Signaling Cell lysis buffer was made (Catalogue #9803; comes with the kit). Media from the treated wells is aspirated, and 100 μL 1× cell lysis buffer/well is added. The cells were placed on a shaker for 10 minutes at 4° C. Twenty microliters of lysate was transferred to 100 μl of Diluent in ELISA plate (0.15 μg/ml-[…]). The lysate-diluent mixture was shaken for 30 minutes at 37° C. Allow mouse AR antibody, anti-mouse antibody, TMB, and STOP solution to come to room temperature. The 1×ELISA buffer included in kit was made and loaded in the reservoir. Media from the plates was discarded, the ELISA plate tapped hard on paper towel, and washed 4×200 μl ELISA wash buffer using a plate washer.
One-hundred (100) […] of mouse AR detection Ab was added; the plates were covered and shaken at 37° C. for 1 hour; media was discarded from the plates, the plates were tapped on a paper towel, washed 4× with 200 μL ELISA wash buffer with a plate washer.
One-hundred (100) […] of anti-mouse—HRP conjugated Ab (comes with the kit) was added; the plates were covered and shaken at 37° C. for 30 minutes; the TMB reagent was allowed to come to room temperature; the media was discard from the plate, the plates were tapped on paper towel, washed 4× with 200 μL of ELISA wash buffer; the plates were tapped the plates on paper towel. One-hundred (100) L of TMB was added and the plates shaken for 2 minutes—while watching for color development. One-hundred (100) L Stop solution was added when light blue color developed. Plates were shaken and read at 450 nm.
Progression of prostate cancer in patients treated with anti-androgen therapy usually involves one of several mechanisms of enhanced Androgen Receptor (AR) signaling, including increased intratumoral androgen synthesis, increased AR expression and AR mutations. PROTACs (PROteolysis TArgeting Chimera), which use bi-functional molecules that simultaneously bind a target of choice and an E3 ligase, cause ubiquitination via induced proximity and degradation of the targeted, pathological protein. As opposed to traditional target inhibition, which is a competitive process, degradation is a progressive process. As such, it is less susceptible to increases in endogenous ligand, target expression, or mutations in the target. Thus, this technology appears to be ideal for addressing the mechanisms of AR resistance in patients with prostate cancer. Data was analyzed and plotted using GraphPad Prism software.

Row | Compound | DC50 [nM] | Dmax [%]
1 | Cc1cc(O[C@H]2C(C)(C)[C@H](NC(=O)c3cnc(N4CCC(CN(C(C)C)[C@H]5C[C@H](Oc6cccc(C(=O)NC7CCC(=O)NC7=O)c6)C5)CC4)nc3)C2(C)C)cc(C)c1C#N (stereo partly drawn) [Compound 11, N-((1R,3R)-3-(4-cyano-3,5-dimethylphenoxy)-2,2,4,4-tetramethylcyclobutyl)-2-(4-((((1R,3R)-3-(3-((2,6-dioxopiperidin-3-yl)carbamoyl)phenoxy)cyclobutyl)(isopropyl)amino)methyl)piperidin-1-yl)pyrimidine-5-carboxamide] | < 1 | 50 to 70
2 | Cc1cc(O[C@H]2C(C)(C)[C@H](NC(=O)c3cnc(N4CCC(CN(C(C)C)[C@H]5C[C@H](Oc6ccc(C(=O)NC7CCC(=O)NC7=O)cc6)C5)CC4)nc3)C2(C)C)cc(C)c1C#N (stereo partly drawn) [Compound 12, N-((1R,3R)-3-(4-cyano-3,5-dimethylphenoxy)-2,2,4,4-tetramethylcyclobutyl)-2-(4-((((1R,3R)-3-(4-((2,6-dioxopiperidin-3-yl)carbamoyl)phenoxy)cyclobutyl)(isopropyl)amino)methyl)piperidin-1-yl)pyrimidine-5-carboxamide] | < 1 | ≥ 70
3 | Cc1cc(O[C@H]2C(C)(C)[C@H](NC(=O)c3cnc(N4CCC(CN(C(C)C)[C@H]5C[C@H](Oc6ccc(C(=O)NC7CCC(=O)NC7=O)cc6)C5)CC4)cn3)C2(C)C)cc(C)c1C#N (stereo partly drawn) [Compound 13, N-((1R,3R)-3-(4-cyano-3,5-dimethylphenoxy)-2,2,4,4-tetramethylcyclobutyl)-5-(4-((((1R,3R)-3-(4-((2,6-dioxopiperidin-3-yl)carbamoyl)phenoxy)cyclobutyl)(isopropyl)amino)methyl)piperidin-1-yl)pyrazine-2-carboxamide] | 1 to 10 | 50 to 70
4 | Cc1cc(O[C@H]2C(C)(C)[C@H](NC(=O)c3cnc(N4CCC(CN(C(C)C)[C@H]5C[C@H](Oc6cccc(C(=O)NC7CCC(=O)NC7=O)c6)C5)CC4)cn3)C2(C)C)cc(C)c1C#N (stereo partly shown) [Compound 15, 5-(4-[[(propan-2-yl)[(1r,3r)-3-[3-[(2,6-dioxopiperidin-3-yl)carbamoyl]phenoxy]cyclobutyl]amino]methyl]piperidin-1-yl)-N-[(1r,3r)-3-(4-cyano-3,5-dimethylphenoxy)-2,2,4,4-tetramethylcyclobutyl]pyrazine-2-carboxamide] | 1 to 10 | < 50
5 | CC(C)N(CC1CCN(c2cnc(C(=O)N[C@H]3C(C)(C)[C@H](Oc4ccc(C#N)c(Cl)c4)C3(C)C)cn2)CC1)[C@H]1C[C@H](Oc2ccc(C(=O)NC3CCC(=O)NC3=O)cc2)C1 (stereo partly drawn) [Compound 16, N-((1R,3R)-3-(3-chloro-4-cyanophenoxy)-2,2,4,4-tetramethylcyclobutyl)-5-(4-((((1R,3R)-3-(4-((2,6-dioxopiperidin-3-yl)carbamoyl)phenoxy)cyclobutyl)(isopropyl)amino)methyl)piperidin-1-yl)pyrazine-2-carboxamide] | 1 to 10 | < 50
